Test results: ChEMBL document CHEMBL5244235, “Diarylpentanoids with antitumor activity: A critical review of structure-activity relationship studies” (Eur J Med Chem, 2020)
“And” between values parts separate entries of the source, which are not always exact repeats. Equal entries are not always repeated. Values belong to the compound of their own block, whether it stands above or below them.

Assays:
MDA-MB-231 [1] = assay: Antiproliferative activity against human MDA-MB-231 cells assessed as cell growth inhibition; type: functional, cell-based
HCC1419 = assay: Antiproliferative activity against human HCC1419 cells assessed as cell growth inhibition; type: functional, cell-based
MCF7 [2] = assay: Antiproliferative activity against human MCF7 cells assessed as cell growth inhibition; type: functional, cell-based
[3] = Antiproliferative activity against human MCF-10A cells assessed as cell growth inhibition; type: toxicity, cell-based
MDA-MB-231 [4] = assay: Antiproliferative activity against lung metastasis variant of human MDA-MB-231 cells assessed as cell growth inhibition; type: functional, cell-based
B16 = assay: Antiproliferative activity against mouse B16 cells assessed as cell growth inhibition; type: functional, cell-based
MDA-MB-231 [5] = assay: Growth inhibition of human MDA-MB-231 cells measured after 72 hrs by microplate reader analysis; type: functional
RPMI-7951 = assay: Growth inhibition of human RPMI-7951 cells measured after 72 hrs by microplate reader analysis; type: functional, cell-based; details: RPMI-7951, time 72 hrs
[6] = Cytotoxicity against HUVEC cells assessed as cell growth inhibition by anti-angiogenisis screening assay; type: toxicity, cell-based; details: human
[7] = Cytotoxicity against mouse MS-1 cells assessed as cell growth inhibition by anti-angiogenisis screening assay; type: toxicity, cell-based
[8] = Cytotoxicity against mouse SVR cells assessed as cell growth inhibition by anti-angiogenisis screening assay; type: toxicity, cell-based
A549 [9] = assay: Antiproliferative activity against human A549 cells assessed as cell viability by WST-1 assay; type: functional, cell-based
MV4-11 = assay: Antiproliferative activity against human MV4-11 cells assessed as cell viability by WST-1 assay; type: functional, cell-based
MG-63 = assay: Antiproliferative activity against human MG-63 cells assessed as cell viability by WST-1 assay; type: functional, cell-based
NCI-H23 = assay: Antiproliferative activity against human NCI-H23 cells assessed as cell viability by WST-1 assay; type: functional, cell-based
MDA-MB-231 [10] = assay: Antiproliferative activity against human MDA-MB-231 cells assessed as cell viability by WST-1 assay; type: functional, cell-based
MDA-MB-468 = assay: Antiproliferative activity against human MDA-MB-468 cells assessed as cell viability by WST-1 assay; type: functional, cell-based
[11] = Antiproliferative activity against human MRC9 cells assessed as cell growth inhibition measured after 72 hrs by MTT assay; type: functional, cell-based; details: MRC9, 72 h
HeLa [12] = assay: Antiproliferative activity against human HeLa cells assessed as cell growth inhibition measured after 72 hrs by MTT assay; type: functional, cell-based
Ca-Ski = assay: Antiproliferative activity against human Ca-Ski cells assessed as cell growth inhibition measured after 72 hrs by MTT assay; type: functional, cell-based
AGS = assay: Antiproliferative activity against human AGS cells assessed as cell growth inhibition measured upto 72 hrs by MTT assay; type: functional, cell-based
KYSE-30 = assay: Antiproliferative activity against human KYSE-30 cells assessed as cell growth inhibition measured upto 72 hrs by MTT assay; type: functional, cell-based; details: KYSE-30, 72 h
HeLa [13] = assay: Antiproliferative activity against human HeLa cells assessed as cell growth inhibition measured after 24 hrs by MTT assay; type: functional, cell-based
THP-1 = assay: Antiproliferative activity against human THP-1 cells assessed as cell growth inhibition measured after 24 hrs by MTT assay; type: functional, cell-based; details: THP-1, 24 h
HepG2 = assay: Antiproliferative activity against human HepG2 cells assessed as cell growth inhibition measured after 24 hrs by MTT assay; type: functional, cell-based; details: HepG2, 24 h
K562 = assay: Antiproliferative activity against human K562 cells assessed as cell growth inhibition measured after 24 hrs by MTT assay; type: functional, cell-based; details: K562, 24 h
GCIY = assay: Antiproliferative activity against human GCIY cells assessed as cell growth inhibition measured after 72 hrs; type: functional, cell-based
[14] = Antiproliferative activity against human SH-10-TC cells assessed as cell growth inhibition measured after 72 hrs; type: functional, cell-based
HCT-116 [15] = assay: Antiproliferative activity against human HCT-116 cells assessed as cell growth inhibition measured after 72 hrs; type: functional, cell-based; details: HCT-116, 72 h
DLD-1 [16] = assay: Antiproliferative activity against human DLD-1 cells assessed as cell growth inhibition measured after 72 hrs; type: functional, cell-based; details: DLD-1, 72 h
A549 [17] = assay: Antiproliferative activity against human A549 cells assessed as cell growth inhibition measured after 72 hrs; type: functional, cell-based; details: A549, 72 h
ACHN = assay: Antiproliferative activity against human ACHN cells assessed as cell growth inhibition measured after 72 hrs; type: functional, cell-based
Huh-7 = assay: Antiproliferative activity against human Huh-7 cells assessed as cell growth inhibition measured after 72 hrs; type: functional, cell-based; details: Huh-7, 72 h
[18] = Antiproliferative activity against human OVK18 cells assessed as cell growth inhibition measured after 72 hrs; type: functional, cell-based; details: OVK18, 72 h
MCF7 [19] = assay: Antiproliferative activity against human MCF7 cells assessed as cell growth inhibition measured after 72 hrs; type: functional, cell-based; details: MCF7, 72 h
A-431 = assay: Antiproliferative activity against human A-431 cells assessed as cell growth inhibition measured after 72 hrs; type: functional, cell-based; details: A-431, 72 h
HuCCT-1 = assay: Antiproliferative activity against human HuCCT-1 cells assessed as cell growth inhibition measured after 72 hrs; type: functional, cell-based; details: HuCCT-1, 72 h
8505C = assay: Antiproliferative activity against human 8505C cells assessed as cell growth inhibition measured after 72 hrs; type: functional, cell-based
G-361 = assay: Antiproliferative activity against human G-361 cells assessed as cell growth inhibition measured after 72 hrs; type: functional, cell-based; details: G-361, 72 h
PC-3 = assay: Antiproliferative activity against human PC-3 cells assessed as cell growth inhibition measured after 72 hrs; type: functional, cell-based; details: PC-3, 72 h
[20] = Antiproliferative activity against human PK-1 cells assessed as cell growth inhibition measured after 72 hrs; type: functional, cell-based; details: PK-1, 72 h
DLD-1 [21] = assay: Antiproliferative activity against human DLD-1 cells assessed as cell growth inhibition measured after 96 hrs; type: functional, cell-based; details: DLD-1, 96 h
HCT-116 [22] = assay: Antiproliferative activity against human HCT116 cells assessed as cell growth inhibition measured after 96 hrs; type: functional, cell-based; details: HCT-116, 96 h

Structure (SMILES): Cc1ccc(/C=C2\CN(C(=O)c3ccc(OCCN(C)C)cc3)C/C(=C\c3ccc(C)cc3)C2=O)cc1
- IC50 (MDA-MB-231 [1]): 720 nM
- IC50 (HCC1419): 1460 nM
- IC50 (MCF7 [2]): 1640 nM
- IC50 [3]: 41000 nM
- IC50 (MDA-MB-231 [4]): 530 nM

Structure (SMILES): COc1cc(/C=C2\CNC/C(=C\c3cc(OC)cc(OC)c3)C2=O)cc(OC)c1
- IC50 (B16): 200 nM

Structure (SMILES): COc1cc(/C=C2\CN(C(=O)C(C)C)C/C(=C\c3cc(OC)c(OC)c(OC)c3)C2=O)cc(OC)c1OC
- IC50 (A549 [9]): 390 nM
- IC50 (MV4-11): 390 nM
- IC50 (MG-63): 390 nM
- IC50 (NCI-H23): 390 nM
- IC50 (MDA-MB-231 [10]): 390 nM
- IC50 (MDA-MB-468): 390 nM

Structure (SMILES): CCOc1ccc(/C=C2\CCC/C(=C\c3ccc(OCC)c(OC)c3)C2=O)cc1OC
- IC50 (AGS): 720 nM
- IC50 (KYSE-30): 3400 nM

Structure (SMILES): C=C1CC2CC(C1)/C(=C\c1ccc(OC)c(OC)c1)C(=O)/C2=C/c1ccc(OC)c(OC)c1
- IC50 (GCIY): > 50000 nM
- IC50 [14]: > 50000 nM
- IC50 (HCT-116 [15]): > 50000 nM
- IC50 (DLD-1 [16]): > 50000 nM
- IC50 (A549 [17]): > 50000 nM
- IC50 (ACHN): > 50000 nM
- IC50 (Huh-7): > 50000 nM
- IC50 [18]: > 50000 nM
- IC50 (MCF7 [19]): > 50000 nM
- IC50 (A-431): > 50000 nM
- IC50 (HuCCT-1): > 50000 nM
- IC50 (8505C): > 50000 nM
- IC50 (G-361): > 50000 nM
- IC50 (PC-3): > 50000 nM
- IC50 [20]: > 50000 nM
- IC50 (DLD-1 [21]): 8000 nM

Structure (SMILES): C#CCOc1ccc(/C=C2\CCC/C(=C\c3ccc(OCC#C)c(OC)c3)C2=O)cc1OC
- IC50 (AGS): 560 nM
- IC50 (KYSE-30): 3600 nM

More lines, main results first:

- GI50 (MDA-MB-231 [5]): 1000 nM
Structure (SMILES): O=C(/C=C/c1ccc(O)cc1)/C=C/c1ccc(O)cc1
- GI50 (RPMI-7951): 2300 nM
- GI50 [6]: 3200 nM
- GI50 [7]: 3200 nM
- GI50 [8]: 3200 nM

- GI50 (MDA-MB-231 [5]): 1000 nM
- EC50 (HeLa [12]; hela): 1030 nM and 2600 nM
Structure (SMILES): O=C(/C=C/c1ccccc1O)/C=C/c1ccccc1O
- EC50 [11]: 4600 nM
- GI50 (RPMI-7951): 2300 nM
- GI50 [6]: 1800 nM
- GI50 [7]: 1800 nM
- GI50 [8]: 1800 nM
- EC50 (Ca-Ski): 1030 nM

- IC50 (MDA-MB-231 [1]): 720 nM
- IC50 (HCC1419): 1460 nM
- IC50 (MCF7 [2]): 1640 nM
- IC50 (MDA-MB-231 [4]): 530 nM
Structure (SMILES): CCN(CC)CCOc1ccc(C(=O)N2C/C(=C\c3ccccc3)C(=O)/C(=C/c3ccccc3)C2)cc1
- IC50 [3]: 41000 nM

- IC50 (HeLa [13]): < 5000 nM
- IC50 (THP-1): < 5000 nM
- IC50 (HepG2): < 5000 nM
- IC50 (K562): < 5000 nM
Structure (SMILES): O=C1/C(=C/c2cccc(/N=C/c3ccccc3O)c2)CCC/C1=C\c1cccc(/N=C/c2ccccc2O)c1

- EC50 (HeLa [12]; Homo sapiens, HeLa, 72 h): 1030 nM
Structure (SMILES): O=C(/C=C/c1cccc(F)c1)/C=C/c1cccc(F)c1
- EC50 (Ca-Ski): 1030 nM

- IC50 (A549 [9]): 390 nM
- IC50 (MV4-11): 390 nM
- IC50 (NCI-H23): 390 nM
- IC50 (MDA-MB-231 [10]): 390 nM
- IC50 (MDA-MB-468): 390 nM
Structure (SMILES): O=C1/C(=C/c2ccccc2Br)CNC/C1=C\c1ccccc1Br
- IC50 (MG-63): 390 nM

- IC50 (A549 [9]): 390 nM
- IC50 (MV4-11): 390 nM
- IC50 (NCI-H23): 390 nM
- IC50 (MDA-MB-231 [10]): 390 nM
- IC50 (MDA-MB-468): 390 nM
Structure (SMILES): O=C1/C(=C/c2ccccc2Cl)CNC/C1=C\c1ccccc1Cl
- IC50 (MG-63): 390 nM

- IC50 (HCT-116 [22]): 250 nM
Structure (SMILES): COCOc1c(OC)cc(/C=C/C(=O)/C=C/c2cc(OC)c(OCOC)c(OC)c2)cc1OC

- IC50 (MDA-MB-231 [1]): 720 nM
- IC50 (HCC1419): 1460 nM
- IC50 (MCF7 [2]): 1640 nM
- IC50 (MDA-MB-231 [4]): 530 nM
Structure (SMILES): CCN(CC)CCOc1cccc(C(=O)N2C/C(=C\c3ccccc3)C(=O)/C(=C/c3ccccc3)C2)c1
- IC50 [3]: 41000 nM

- IC50 (HeLa [13]): < 5000 nM
- IC50 (THP-1): < 5000 nM
- IC50 (HepG2): < 5000 nM
- IC50 (K562): < 5000 nM
Structure (SMILES): O=C1/C(=C/c2cccc(/N=C/c3ccc(O)c(O)c3O)c2)CCC/C1=C\c1cccc(/N=C/c2ccc(O)c(O)c2O)c1
